Measured values taken from patent US9145415B2, “Nitrogen-containing heterocyclic compound or salt thereof” (FUJIFILM Corporation, priority 2012, dated 2015).
Like-named read-outs stand apart in the source and are kept apart here.

Tests used:
Molm-13 cells = assay: Leukemia cell proliferation inhibition test (ATPlite), Molm-13; format: cell-based; conditions: read-out: MOLM13 cell proliferation inhibition effect
In short: (§1)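 Proliferation inhibition is quantified from total cellular ATP, measured by luciferase luminescence, after cells grow with compound for 72 hours. The GI50 is the concentration giving half the signal of the 0.1% DMSO control, fitted to a sigmoid curve from duplicate points.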

MV4-11 cells = assay: Leukemia cell proliferation inhibition test (ATPlite), MV4-11; format: cell-based; conditions: read-out: MV4-11 cell proliferation inhibition effect
In short: as §1

[1] = biological target: T1, human FLT3 protein (FLT3 (WT)) (Homo sapiens, UniProt P36888); assay: FLT3 inhibition test (FLT3 enzyme inhibition, time-resolved fluorescence of substrate peptide phosphorylation); format: biochemical; conditions: read-out: FLT3 (WT) enzyme inhibition activity
T1 construct: human FLT3 protein (intracellular region, 564 to 993 aa); GST; purchased Carna Biosciences; host or cells: baculovirus expression system
T1 sequence (P36888 564-993): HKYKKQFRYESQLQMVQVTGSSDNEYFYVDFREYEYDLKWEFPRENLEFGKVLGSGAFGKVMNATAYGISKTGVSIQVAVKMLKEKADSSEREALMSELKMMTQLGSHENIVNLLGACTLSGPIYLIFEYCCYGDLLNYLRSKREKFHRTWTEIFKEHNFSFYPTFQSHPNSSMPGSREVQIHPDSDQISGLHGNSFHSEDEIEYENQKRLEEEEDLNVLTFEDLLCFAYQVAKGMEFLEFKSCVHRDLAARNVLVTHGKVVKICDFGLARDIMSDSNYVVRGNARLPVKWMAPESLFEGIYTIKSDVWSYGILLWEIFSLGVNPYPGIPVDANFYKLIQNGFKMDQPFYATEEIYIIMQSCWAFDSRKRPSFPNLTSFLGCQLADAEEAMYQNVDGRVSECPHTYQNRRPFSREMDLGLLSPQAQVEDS
In short: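 Substrate peptide phosphorylation detected by time-resolved fluorescence after a 30 min kinase reaction at 25° C with 50 μM ATP (final). Beforehand, compound and FLT3 (WT, 1.2 μg) stood 15 min at 25° C in HEPES buffer pH 7.5 containing MgCl2, NaCl, BSA and DTT.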

[2] = Homo sapiens, MOLM-13, 72 h, Molm-13, 72 hours culture, ATPlite, GI50 per method
[3] = Homo sapiens, MV4-11, 72 h, MV4-11, 72 hours culture, ATPlite, GI50 per method
[4] = GST-fused human FLT3 (564 to 993 aa), ATP 50 μM
[5] = Homo sapiens, MOLM-13, MOLM13 cell
[6] = Homo sapiens, MV4-11, MV4-11 cell

| Compound | IC50 (Molm-13 cells; [2]) | IC50 (MV4-11 cells; [3]) | IC50 [1, 4] | IC50 (Molm-13 cells; [5]) | IC50 (MV4-11 cells; [6]) | IC50 ([1]; FLT3 (WT)) | IC50 (Molm-13 cells; Molm-13, 72 hours culture, ATPlite, GI50 per method) | IC50 (MV4-11 cells; MV4-11, 72 hours culture, ATPlite, GI50 per method) |
| --- | --- | --- | --- | --- | --- | --- | --- | --- |
| CCCNc1nc(Nc2cccc(F)c2)ncc1C#CCCCNC(=O)[C@@H]1CCN1C(=O)/C=C/CN(C)C [Compound 7-51] | < 10 nM | < 10 nM | < 10 nM | – | – | – | – | – |
| CCCNc1nc(Nc2ccc(C#N)cc2)ncc1C#CCCCNC(=O)[C@H](CC)N(C)C(=O)/C=C/CN(C)C [Compound 7-34] | < 10 nM | < 10 nM | < 10 nM | – | – | – | – | – |
| CCCNc1nc(NCCc2ccncc2)ncc1C(=O)Nc1cccc(NC(=O)[C@H](C)N(C)C(=O)/C=C/CN(C)C)c1 [Compound 2-12, (S,E)-N-(3-(2-(4-(Dimethylamino)-N-methyl-2-butenamido)propanamido)phenyl)-4-(propylamino)-2-((2-(pyridin-4-yl)ethyl)amino)pyrimidine-5-carboxamide] | < 10 nM | < 10 nM | < 10 nM | – | – | – | – | – |
| CNc1nc(Nc2cccc(F)c2)ncc1C#CCCCNC(=O)[C@@H]1C[C@H](O)CN1C(=O)/C=C/CN(C)C [Compound 7-74] | < 10 nM | < 10 nM | < 10 nM | – | – | – | – | – |
| CCCNc1nc(Nc2ccc(C#N)cc2)ncc1C#CCCCNC(=O)[C@H]1CCCN1C(=O)/C=C/CN(C)C [Compound 7-36] | 10 to 100 nM | < 10 nM | < 10 nM | – | – | – | – | – |
| CCCNc1nc(Nc2ccc(C(N)=O)cc2)ncc1C(=O)Nc1ccc2nc(CNC(=O)/C=C/CN(C)C)[nH]c2c1 [Compound 3-18] | > 1000 nM | > 1000 nM | < 10 nM | – | – | – | – | – |
| CCCNc1nc(Nc2ccc(C(N)=O)cc2)ncc1C(=O)N[C@@H]1CCC[C@H](Nc2ccccc2NC(=O)/C=C/CN(C)C)C1 [Compound 3-28] | – | – | < 10 nM | – | – | – | 100 to 1000 nM | 100 to 1000 nM |
| CCCNc1nc(Nc2ccc(C(N)=O)cc2)ncc1C(=O)Nc1cccc(NC2CCCN(C(=O)/C=C/CN(C)C)CC2)c1 (stereo not drawn) [Compound 3-21] | 100 to 1000 nM | 100 to 1000 nM | < 10 nM | – | – | – | – | – |
| CCCNc1nc(Nc2ccc(C#N)cc2)ncc1C(=O)Nc1cccc(NC(=O)[C@H](C)N(C)C(=O)/C=C/CN(C)C)c1 [Compound 6-1, (S,E)-2-((4-cyanophenyl)amino)-N-(3-(2-(4-(dimethylamino)-N-methyl-2-butenamido)propanamido)phenyl)-4-(propylamino)pyrimidine-5-carboxamide] | 10 to 100 nM | < 10 nM | < 10 nM | – | – | – | – | – |
| CCCNc1nc(Nc2ccc(C(N)=O)cc2)ncc1C(=O)Nc1cccc(NC(=O)[C@H](C)N(C)C(=O)/C=C/CN(C)CC)c1 [Compound 4-3] | < 10 nM | < 10 nM | < 10 nM | – | – | – | – | – |
| CCCNc1nc(Nc2ccc(C(N)=O)cc2)ncc1C#CCCCNC(=O)[C@H](C)N(C)C(=O)/C=C/CN(C)C [Compound 7-4, (S,E)-4-((5-(5-(2-(4-(Dimethylamino)-N-methyl-2-butenamido)propaneamido)-1-pentyn-1-yl)-4-(propylamino)pyrimidin-2-yl)amino)benzamide] | < 10 nM | < 10 nM | < 10 nM | – | – | – | – | – |
| COc1ccc(Nc2ncc(C#CCCCNC(=O)[C@H](C)N(C)C(=O)/C=C/CN(C)C)c(NC3CC3)n2)cc1F [Compound 7-42, (S,E)-N-(1-((5-(4-(Cyclopropylamino)-2-((3-fluoro-4-methoxyphenyl)amino)pyrimidin-5-yl)-4-pentyn-1-yl)amino)-1-oxopropan-2-yl)-4-(dimethylamino)-N-methyl-2-butenamide] | < 10 nM | < 10 nM | < 10 nM | – | – | – | – | – |

Second part, the compound after the results:

| IC50 (Molm-13 cells; [2]) | IC50 (MV4-11 cells; [3]) | IC50 [1, 4] | IC50 (Molm-13 cells; [5]) | IC50 (MV4-11 cells; [6]) | IC50 ([1]; FLT3 (WT)) | IC50 (Molm-13 cells; Molm-13, 72 hours culture, ATPlite, GI50 per method) | IC50 (MV4-11 cells; MV4-11, 72 hours culture, ATPlite, GI50 per method) | Compound |
| --- | --- | --- | --- | --- | --- | --- | --- | --- |
| – | – | – | < 10 nM | < 10 nM | < 10 nM | – | – | CNc1nc(Nc2ccc(F)cc2)ncc1C#C[C@@H]1CCC[C@H](NC(=O)[C@H](C)N(C)C(=O)/C=C/CN(C)C)C1 [Compound 21-41] |
| 10 to 100 nM | 10 to 100 nM | < 10 nM | – | – | – | – | – | CCCNc1nc(Nc2ccc(C(N)=O)cc2)ncc1C#Cc1ccc(NC(=O)CNC(=O)/C=C/CN(C)C)cc1 [Compound 8-4] |
| < 10 nM | < 10 nM | < 10 nM | – | – | – | – | – | CCCNc1nc(Nc2ccc(F)cc2)ncc1C#C[C@H]1C[C@@H](NC(=O)[C@H](C)N(C)C(=O)/C=C/CN(C)C)C1 [Compound 13-18] |
| < 10 nM | < 10 nM | < 10 nM | – | – | – | – | – | COc1nc(Nc2cccc(F)c2)ncc1C#C[C@@H]1CCC[C@H](NC(=O)[C@H](C)N(C)C(=O)/C=C/CN(C)C)C1 [Compound 15-4] |
| < 10 nM | < 10 nM | < 10 nM | – | – | – | – | – | COCCCNc1nc(Nc2ccc(C#N)cc2)ncc1C#CCCCNC(=O)[C@H](C)N(C)C(=O)/C=C/CN(C)C [Compound 10-49] |
| 10 to 100 nM | < 10 nM | < 10 nM | – | – | – | – | – | C=CC(=O)NCC(=O)Nc1cccc(C#Cc2cnc(Nc3ccc(C(N)=O)cc3)nc2NCCC)c1 [Compound 8-3] |
| 10 to 100 nM | < 10 nM | < 10 nM | – | – | – | – | – | COc1nc(Nc2ccc(F)nc2)ncc1C#C[C@@H]1CCC[C@H](NC(=O)[C@H](C)N(C)C(=O)/C=C/CN(C)C)C1 [Compound 15-2] |
| – | – | – | < 10 nM | < 10 nM | < 10 nM | – | – | CNc1ncc(C#CCCCNC(=O)[C@H](C)N(C)C(=O)/C=C/CN(C)C)c(Nc2ccc(OC)nc2)n1 [Compound 22-23] |
| 100 to 1000 nM | 100 to 1000 nM | 10 to 100 nM | – | – | – | – | – | CCCNc1nc(Nc2cccc(F)c2)ncc1C#CCCC(=O)NCCN(C)C(=O)/C=C/CN(C)C [Compound 8-21] |
| < 10 nM | < 10 nM | < 10 nM | – | – | – | – | – | CNc1nc(Nc2ccc(OC)c(F)c2)ncc1C#C[C@H]1C[C@@H](NC(=O)[C@H](C)N(C)C(=O)/C=C/CN(C)C)C1 [Compound 13-16, (E)-4-(Dimethylamino)-N—((S)-1-(((1S,3R)-3-((2-((3-fluoro-4-methoxyphenyl)amino)-4-(methylamino)pyrimidin-5-yl)ethynyl)cyclobutyl)amino)-1-oxopropan-2-yl)-N-methyl-2-butenamide] |
| 10 to 100 nM | 10 to 100 nM | < 10 nM | – | – | – | – | – | CCCNc1nc(Nc2cnc(NC)c(F)c2)ncc1C#CCCCNC(=O)[C@H](C)N(C)C(=O)/C=C/CN(C)C [Compound 21-14] |
| 10 to 100 nM | < 10 nM | < 10 nM | – | – | – | – | – | CC[C@@H](C(=O)NCCCC#Cc1cnc(Nc2ccc(F)nc2)nc1NCC(F)(F)F)N(C)C(=O)/C=C/CN(C)C [Compound 10-35] |
| – | – | – | < 10 nM | < 10 nM | < 10 nM | – | – | CCCNc1nc(Nc2ccc3c(c2)c(OC)nn3C)ncc1C#CCCCNC(=O)[C@@H]1CCCN1C(=O)/C=C/CN(C)C [Compound 22-30] |
| < 10 nM | < 10 nM | < 10 nM | – | – | – | – | – | C[C@@H](C(=O)N[C@H]1C[C@@H](C#Cc2cnc(Nc3ccc(C#N)cc3)nc2NC2CC2)C1)N(C)C(=O)/C=C/CN(C)C (relative stereo) [Compound 15-8, (E)-N—((S)-1-(((1S*,3R*)-3-((2-((4-Cyanophenyl)amino)-4-(cyclopropylamino)pyrimidin-5-yl)ethynyl)cyclobutyl)amino)-1-oxopropan-2-yl)-4-(dimethylamino)-N-methyl-2-butenamide] |
| 10 to 100 nM | 10 to 100 nM | < 10 nM | – | – | – | – | – | CCCNc1nc(Nc2ccc(C)cc2)ncc1C#CCCCNC(=O)[C@H](C)N(C)C(=O)/C=C/CN(C)C [Compound 12-9] |
| – | – | – | < 10 nM | < 10 nM | < 10 nM | – | – | CCCNc1nc(Nc2ccc3cnn(C)c3c2)ncc1C#CCCCNC(=O)[C@@H]1CCCN1C(=O)/C=C/CN(C)C [Compound 22-32] |
| – | – | – | 10 to 100 nM | < 10 nM | < 10 nM | – | – | CCCNc1nc(Nc2cncc(F)c2)ncc1C#CCCCNC(=O)[C@H](C)N(C)C(=O)/C=C/CN(C)C [Compound 22-8] |
| < 10 nM | < 10 nM | < 10 nM | – | – | – | – | – | CNc1nc(Nc2ccc(C#N)cc2)ncc1C#C[C@@H]1CCC[C@H](NC(=O)[C@H](C)N(C)C(=O)/C=C/CN(C)C)C1 [Compound 15-5, (E)-N—((S)-1-(((1S,3R)-3-((2-((4-Cyanophenyl)amino)-4-(methylamino)pyrimidin-5-yl)ethynyl)cyclohexyl)amino)-1-oxopropan-2-yl)-4-(dimethylamino)-N-methyl-2-butenamide] |
| 10 to 100 nM | 10 to 100 nM | < 10 nM | – | – | – | – | – | CNc1nc(Nc2cccc(F)c2)ncc1C#Cc1cccc(NC(=O)CN(C)C(=O)/C=C/CN(C)C)c1 [Compound 8-23] |
